Results on two molecules are retold here after patent US20070270459A1, “Overactive bladder treating drug” (ASTELLAS PHARMA INC., priority 2002, published 2007).

For this assay, the system named is overactive bladder model rat. In words: Cystometry under nonanesthesized condition in overactive bladder model (BOO) rats. Type of assay: in vivo. The source says: (1) Preparation of Overactive Bladder Model Rats
Wistar female rats (6 to 7 weeks old) were employed for the preparation. A catheter was inserted into the urinary bladder through the external urethral orifice under anesthesia with sodium pentobarbital in rats. After subjecting the abdominal region to the median section, the proximal urethra was ligated together with the catheter at 2 sites by a silk blade (5-0), and the catheter was removed.
(2) Cystometry Under Nonanesthesized Condition
At more than 6 weeks after surgery, the silk blade used for ligation of the urethra was removed under anesthesia with sodium pentobarbital. A catheter for infusion of physiological saline and for the measurement of the intravesical pressure was inserted into the urinary bladder through the top part of the urinary bladder and fixed. A catheter for administration of a drug was inserted into the jugular vein, and the rat was returned to a housing cage after recovery. At 2 days after surgery, the catheter inserted into the urinary bladder was connected to a syringe pump for continuous infusion of physiological saline (7-20 mL/hr) to induce the micturition reflex and to a pressure transducer to measure the intravesical pressure with a three way stopcock. After the micturition reflex was stabilized, physiological saline or a drug was administered through the catheter for administration of a drug inserted into the jugular vein.
As the parameters evaluated, the frequency of contraction before micturition (the number of contractions for 10 min before starting of micturition), contraction pressure (mean contraction pressure for 10 min before starting of micturition), micturition pressure and interval of micturition were employed for the present test. The effect of a drug was evaluated on the basis of the inhibition ratio against the pre-dosing values (prolongation ratio in the micturition interval).
Tamsulosin hydrochloride was administered intravenously in increasing the doses at a common ratio of about 3 (1, 3 and 10 μg/kg). The action of tamsulosin hydrochloride (3 μg/kg) in combination with Solifenacin succinate (3 mg/kg) on each parameter was also evaluated.
Each test was performed at n=5, and the results are expressed as mean±standard error. Student's t-test and Tukey's test were used for comparison between 2 groups and among multiple groups, respectively.

Where a name gives a salt, the structure may show the parent alone.

Turning to `CCOc1ccccc1OCCN[C@H](C)Cc1ccc(OC)c(S(N)(=O)=O)c1` [tamsulosin hydrochloride, (R)(−)-5-[2-[[2-(o-ethoxyphenoxy)ethyl]amino]propyl]-2-methoxybenzene-sulfonamide], the “interval of micturition, prolongation ratio” value is, setting by setting: (3 μg/kg i.v., alone) 2.1%; (10 μg/kg intravenous, vs pre-dosing value) 9.2%. The micturition pressure result (10 μg/kg intravenous) was “no influence” and the micturition pressure entry (tamsulosin hydrochloride alone, comparison arm of the combination test (3 μg/kg i.v.)) is “no effect”. Further, under “tamsulosin hydrochloride 1, 3 and 10 μg/kg intravenous, vs pre-dosing values, n=5, FIG. 1A”, the “frequency of contraction before micturition (number of contractions for 10 min before starting of micturition)” value was “inhibited in a dose-dependent manner”. Also, the “contraction pressure before micturition (mean contraction pressure for 10 min before starting of micturition)” value (tamsulosin hydrochloride 1, 3 and 10 μg/kg intravenous, vs pre-dosing values, n=5, FIG. 1B) is “inhibited in a dose-dependent manner”.

On to `O=C(O[C@H]1CN2CCC1CC2)N1CCc2ccccc2[C@@H]1c1ccccc1` [solifenacin succinate, (+)-(1S,3′R)-quinuclidin-3′-yl 1-phenyl-1,2,3,4-tetrahydroisoquinoline-2-carboxylate], for which, for the setting “3 mg/kg i.v., alone”, the “interval of micturition, prolongation ratio” value amounted to 2.6%.
